# Patent publication US20250054573A1, “METHOD OF CHARACTERISING A DNA SAMPLE” (Cambridge Enterprise Limited, priority 2021, published 2025)
# Tested on: human cancer cell lines
# Experiment: Kendall's Tau correlation of CIN signature activities with drug response (AUC, PRISM drug repurposing screen) across cancer cell lines
# Format: cell-based
# Conditions: for tau (Kendall's Tau), CIN signature activity vs drug response: drug AUC, PRISM screen
# Description: Calculating signature activities for cell lines. […] Combined cell line log R and BAF data was split into sample-specific log R and BAF files. […] In this pipeline, while the rescued SNPs allow for the identification of additional segments from their Log R, by construction their average BAF is never equal to 0 or 1 even in the presence of LOH. This biases purity estimates towards lower values and renders the copy-number fitting inaccurate.
# Where nT is the total number of copies in the tumour, ρ is the purity and ψ is the average tissue ploidy. Akin to ASCAT, we picked the purity and ploidy combination that minimized the distance between nr and integer values. […] As fitting of absolute copy number to non-matched cell line data is inherently more challenging than other instances, all cell lines where ASCAT identified a plausible solution were visually inspected to determine fit suitability and excluded cell lines where absolute copy number profiles were incorrect or poorly fitted. […] For identifying the signature activities, we used the linear combination decomposition function from YAPSA (R package, v1.12.0) and the 17 signatures of CIN.
# CRISPR, RNAi and drug response data integration.
# Correlation of signatures with target gene KO, KD and drug inhibition. Kendall's Tau correlation was performed between CIN signature activities and gene essentiality scores from the genetic perturbation screens. Correlations were filtered for tau<−0.07 and q-value<0.05 after multiple testing corrections using the Benjamini-Hochberg method. […] These targets were then used to test correlation of the signature activity with matched drug inhibition of the target measured via AUC.
smiles,measurement,setting,value
COc1cc2c(cc1O)CC[C@@H]1[C@@H]2CC[C@]2(C)[C@@H](O)CC[C@@H]12 [2-methoxyestradiol],"tau (Kendall's Tau), CIN signature activity vs drug response","CIN sig. CX5, Target HIF1A",−0.1543
Cc1ccc(NC(=O)c2cccc(C(C)(C)C#N)c2)cc1Nc1ccc2ncn(C)c(=O)c2c1 [AZ-628],"tau (Kendall's Tau), CIN signature activity vs drug response","CIN sig. CX1, Target BRAF",−0.09859
same,"tau (Kendall's Tau), CIN signature activity vs drug response","CIN sig. CX14, Target BRAF",−0.1048
same,"tau (Kendall's Tau), CIN signature activity vs drug response","CIN sig. CX14, Target RAF1",−0.1048
same,"tau (Kendall's Tau), CIN signature activity vs drug response","CIN sig. CX15, Target BRAF",−0.1189
Cn1cc(CNCC2CCN(c3ncc(C(=O)NO)cn3)CC2)c2ccccc21 [JNJ-26481585],"tau (Kendall's Tau), CIN signature activity vs drug response","CIN sig. CX17, Target HDAC2",−0.1371
same,"tau (Kendall's Tau), CIN signature activity vs drug response","CIN sig. CX17, Target HDAC4",−0.1371
OC(Cc1ccncc1)C(Cl)(Cl)Cl (stereo not shown) [PETCM],"tau (Kendall's Tau), CIN signature activity vs drug response","CIN sig. CX9, Target CASP3",−0.1078
O=C1NC(=O)c2c1c1c3ccccc3[nH]c1c1[nH]c3ccccc3c21 [arcyriaflavin-a],"association of CX4 activity with drug response, in words","CIN sig. CX4, Target CCND1, 297 cancer cell lines",correlated with response to inhibition of CCND1
same,"tau (Kendall's Tau), CIN signature activity vs drug response","CIN sig. CX4, Target CCND1",−0.1159
same,"tau (Kendall's Tau), CIN signature activity vs drug response","CIN sig. CX13, Target CDK4",−0.07546
C/C1=C/C[C@@H](/C(C)=C/c2csc(C)n2)OC(=O)C[C@H](O)C(C)(C)C(=O)[C@H](C)[C@@H](O)[C@@H](C)CCC1 [epothilone-d],"tau (Kendall's Tau), CIN signature activity vs drug response","CIN sig. CX9, Target TUBB4B",−0.07597
O=C(c1cc(Cc2n[nH]c(=O)c3ccccc23)ccc1F)N1CCN(C(=O)C2CC2)CC1 [olaparib],"association of CX5 activity with drug response, in words","CIN sig. CX5, Target PARP1, 297 cancer cell lines",predicted response to olaparib
